Experimental data published in patent publication US9950091B2, “Composition and method for stopping hemorrhage, infection, and accelerating healing in various types of wound or burns” (priority 2015, dated 2018).

Tested on: human blood (platelet/fibrin clot)
Experiment: Thrombelastography (TEG) clot kinetics in whole blood
Format: cell-based
Details: Table 4, mean ± SD, n=4, control = normal blood, 'Heparin +' lines in presence of heparin
From the text: Thrombelastography techniques, which are commonly used in the clinical laboratory for monitoring coagulation functions, were utilized. Siliconized Vacutainer tubes (Becton Dickinson, Rutherford, N.J.) were used to collect whole blood. To maintain a ratio of citrate to whole blood of 1:9 (v/v), the tubes contained 3.2% trisodium citrate. Blood samples were placed on a slow speed rocker until TEG analysis.
Whole Blood Coagulation Analyzer, Model 5000 Thrombelastograph, Hemoscope Corporation, Skokie, Ill., was used. TEG is based on the measurement of the physical viscoelastic characteristics of blood clots. An oscillating plastic cylindrical cuvette (“cup”) and a coaxially suspended stationary piston (“pin”) with a […] clearance between the surfaces are used to monitor clot formation at 37° C. Every 4.5 seconds, with a 1-second mid cycle stationary period, the cup oscillates in either direction, resulting in a frequency of 0.1 Hz. […]
Different hydrogel polycatioinic matrix micro-composites were evaluated. […]
A standard global coagulation assay, namely Thrombelastography, uses a total of 5 ml blood from human volunteers. Additionally, the efficiency of the optimal hydrogel compositions that have the shortest Time to Clotting (R) and the strongest clot strength (MA) were evaluated in stopping severe bleeding in a hemorrhage simulation model system. […]

NC[C@H]1CC[C@H](C(=O)O)CC1 [tranexamic acid (TXA), tranexamic acid]
MA-Clot Strength: 57 ± 4 mm
R - Time to Clot initiation: 9.0 ± 4 min
